Values joined by “and” are separate entries in the source; they are usually repeats but may differ in a detail not shown here. Equal values may be shown once. Read-outs that look alike come from different tables or passages of the source.
Assays:
[1] = test system: neuromast ciliated cells of Zebrafish; assay: Ototoxicity induced by gentamycin in Zebrafish: protection of neuromast ciliated cells (DASPEI staining); format: in vivo; settings: for EC50: Danio rerio, 0, 25, 50, 100 μM, co-treatment with gentamycin 1 μg/ml, concentration which allows 50% of stained cells to be visualized, read-out: EC50 μM (survival of the ciliated cells in % of the control); for control % (% staining signal of the ciliated cells): positive control = 100%
Text: Ototoxicity Induced after a Treatment with Gentamycin: Protective Effect of the Compounds According to the Invention
Principle of the test: gentamycin and other aminoglycosides cause damage to ciliated cells and a hearing loss in humans. Zebrafish have sensory organs known as neuromasts on the surface of their body. These neuromast ciliated cells are structurally and functionally similar to the internal ciliated cells of the human ear. In these fish, the neuromast ciliated cells can be stained with DASPEI (2,4-dimethyl-aminostyryl-N-ethyl pyridinium iodide) and this staining reflects the number of functional ciliated cells.
Damage to the internal ciliated cells is induced in the Zebrafish with a gentamycin treatment. In order to test the protective effect of the compound to be tested on ciliated cells damaged by gentamycin, the compound was administered as a co-treatment with gentamycin. The internal ciliated cells are then stained and quantified.
The study is carried out on 5-day old fish, incubated with 1 μg/ml of gentamycin for 24 hours in the presence or the absence of the compound. Controls are carried out in parallel; vehicle alone (1% DMSO; positive control). Fish treated with gentamycin only are the negative controls.
The EC50 (concentration of the substance to be tested which protects 50% of the cells from cell death) is calculated from this concentration-effect.
The DASPEI staining is carried out to visualize the ciliated cells in vivo (n=6 per group). Morphometric analysis is used to quantify the staining signal of the ciliated cells. The DASPEI staining signal of the positive controls was defined as 100%.
Positive control (Zebrafish-1% DMSO); Negative control (Zebrafish-1% DMSO-gentamycin 1 μg/ml) and effect of the products (Zebrafish-1% DMSO-gentamycin-compound). Experiment carried out on 6 animals per group.

calpain = assay: Effect in situ on the calpain enzymatic activity of human skeletal cells (SKM), maitotoxin-activated, Suc-Leu-Tyr-AMC substrate; format: cell-based; settings: read-out: IC50 (concentration which inhibits 50% of the enzyme activity), SKM myotubes, 3 h at 30° C.
Procedure: Effect In Situ of the Compounds According to the Invention on the Calpain Enzymatic Activity of Human Skeletal Cells (SKM)
The principle of the test is the following: maitotoxin is a toxin which causes the opening of the calcium channels of cells. The resulting intra-cellular flow of calcium is at the origin of the death of the cell. During this process of cell death, a cysteine-dependent protease, calpain, is activated. The test consists of incubating the cells in the presence of maitotoxin, in order to activate the calpain enzyme, and adding a calpain substrate which fluoresces when the enzyme cleaves this substrate. Finally, calpain inhibitors are tested.
The myoblasts are seeded at 2500 cells per well in 96-well plates in a DMEM 10% FCS (foetal calf serum) culture medium supplemented with amphotericin B, human recombinant epidermal growth factor and dexamethasone. Three days after seeding, the cells have adhered to the bottom of the well, the differentiation of the cells to myotubes is induced by adding 100 μl of DMEM F12 medium containing 2% horse serum. […] The background noise is determined by preparing additional control wells without MTX. […] The plates are stirred, the fluorescence is read at 380/460 nm using a so-called Victor device at time zero. […]
The fluorescence values make it possible to calculate a concentration-effect for each of the compounds. […]

[2] = test system: human skeletal cells (SKM); assay: Protective effect on cell death induced by maitotoxin on human skeletal cells (SKM), WST-1; format: cell-based; settings: read-out: EC50 (concentration which protects 50% of the cells from cell death)
Text: Protective Effect of the Compounds According to the Invention on Cell Death Induced by Maitotoxin on Human Skeletal Cells (SKM)
The principle of the test is the following: maitotoxin is a toxin which causes the opening of the calcium channels of cells. The resulting intra-cellular flow of calcium is at the origin of the death of the cell. During this process of cell death, a cysteine-dependent protease, calpain, is activated, and an abundance of free radicals is produced. The test consists of incubating the cells in the presence of the molecules to be tested, in order to delay or inactivate cell death and thus determine the protective effect.
The myoblasts are seeded at 2500 cells per well in 96-well plates in a DMEM 10% FCS (foetal calf serum) culture medium supplemented with amphotericin B, human recombinant epidermal growth factor and dexamethasone. […]
After an incubation time of 3 h or 96 h, the culture medium is replaced by a DMEM 10% FCS medium supplemented by 10% WST-1, WST-1 (Roche, reference 1644807) is a reagent which stains metabolically active cells, i.e. live cells. […] Then the number of live cells is determined using a Perkin-Elmer Wallac Envision 2101 device by reading the absorbance at 450 nm. The concentration-effect of the products on the cell survival fraction is then calculated. […]

[3] = compound 50 μM as co-treatment with gentamycin 1 μg/ml

Question: Which results are given for `CC(=O)OC1OCC[C@@H]1NC(=O)[C@H](CC(C)C)NC(=N)c1ccc2c(c1)Nc1ccccc1S2.I` (stereo partly drawn) [Example 4, (3S)-3-({N-[imino(10H-phenothiazin-2-yl)methyl]-L-leucyl}amino)tetrahydrofuran-2-yl acetate hydroiodide]?
Answer: EC50 [1]: 51 µM; protection of the ciliated cells damaged by the gentamycin treatment [1, 3]: 36.2%; control % (% staining signal of the ciliated cells) ([1]; compound 50 μM as co-treatment with gentamycin 1 μg/ml, 24 hours, 5-day old fish, acetate hydroiodide): 49% and 49 ± 5%

Question: For `CC(C)C[C@H](NC(=N)c1ccc2c(c1)Nc1ccccc1S2)C(=O)N[C@H]1CCOC1O.I` (stereo partly drawn) [Example 5, N^1-[(3S)-2-hydroxytetrahydrofuran-3-yl]-N^2-[imino(10H-phenothiazin-2-yl)methyl]-L-leucinamide hydroiodide], which EC50 [1] is on record?
Answer: 32 µM

Question: And the “protection of the ciliated cells damaged by the gentamycin treatment” value [1, 3]?
Answer: 40%

Question: What about the “control % (% staining signal of the ciliated cells)” value (from here on “control %”) ([1]; compound 50 μM as co-treatment with gentamycin 1 μg/ml, 24 hours, 5-day old fish, hydroiodide) of the same compound?
Answer: 52% and 52 ± 10%

Question: What about the IC50 (calpain) of the same compound?
Answer: < 20 µM

Question: With `C[C@H]1C[C@@H]2[C@H]([C@@H](O)C[C@@]3(C)[C@H]2CC[C@]3(O)C(=O)CO)[C@@]2(C)C=CC(=O)C=C12` [a-methylprednisolone] as the compound, how does the EC50 ([2]; after incubation for 3 hours in the presence of maitotoxin) read?
Answer: 354 µM

Question: What about the EC50 ([2]; after incubation for 96 hours in the presence of maitotoxin) of the same compound?
Answer: 196 µM

Question: Gentamycin [reference compound] was tested. Which “loss of the ciliated cells following treatment with gentamycin” value ([1]; gentamycin 1 μg/ml alone, 24 hours) did it give?
Answer: 80%

Question: And the “control %” value ([1]; gentamycin 1 μg/ml alone, 24 hours (negative control))?
Answer: 20 ± 0.6%

Question: And the “control %” value ([1]; gentamycin 1 μg/ml alone, 24 hours (negative control), listed as gentamycin)?
Answer: 20%
